Test results reported in patent US5624903A, “Phosphoinositol-glycan-peptide with insulin-like action” (Heochst Aktiengesellschaft, priority 1991, dated 1997).

How the values were obtained:
[1] = test system: pieces of diaphragm; assay: Glycogenesis in rat diaphragm pieces ([14C]glucose into glycogen); type: cell-based; settings: 10 nM
Procedure: (§1) Small pieces of tissue (5 mm diameter) were punched out of hemidiaphragms (Wistar rat, 60-70 g, no feed restriction) and washed several times.
(§2) To inactivate the insulin receptor in rat diaphragm, the pieces of tissue are incubated in KRH buffer (0.1 mM glucose in the presence of 50 μg/ml tetradecanoylphorbol acetate) at 25° C., passing O2 through continuously, for 90 min. The pieces of tissue are subsequently washed twice with KRH buffer and used for the relevant tests.
(§3) The experimental results obtained in the following experiments with tissue or cells in which the insulin receptor has been inactivated are indicated in parentheses in each case.
This test determines the glycogen synthesis which can be stimulated by insulin in myocytes and which embraces glucose transport through the plasma membrane and the conversion of the glucose into glycogen including the functional insulin signal transmission cascade.
Pieces of diaphragm are incubated with 50 μM D-[U-^14 C] glucose in KRH buffer in the presence or absence of insulin and PGP at 37° C. for 15 min. […] To determine the glycogen formed, the filters are transferred into TCA (5%), washed with ethanol and acetone and dried, and their radio-activity is determined by scintillation measurement ([^14 C]glycogen [dpm*10^-3 ]). […]

[2] = test system: rat adipocytes; assay: Lipogenesis in rat adipocytes ([3H]glucose into lipids); type: cell-based; settings: for Lipogenesis ([3H]lipid): 10 nM
Procedure: (§4) Adipose tissue from the epididymis (Wistar rat, 160-180 g, no feed restriction) is digested with collagenase, and the resulting isolated adipocytes are washed several times by flotation.
(§5) To inactivate the insulin receptor in rat adipocytes, the cells are treated with 10 to 40 μg/ml trypsin. After addition of protease inhibitors, the cells are washed twice by flotation, and incubation is continued at 37° C. for 15 min. These cells are then used for the test of stimulation of lipogenesis by the phosphoinositol-glycanpeptides.
as §3
This test determines the conversion, which can be stimulated by insulin, of glucose into toluene-soluble products (triglycerides, phospholipids, fatty acids), which requires glucose transport and triglyceride (glycerol 3-P synthesis, esterification)/phospholipid/fatty acid synthesis including the insulin signal transmission cascade.
Rat adipocytes are incubated in KRH buffer with D-[3-^3 H]glucose (0.2 mM or 1 mM final concentration) in the presence or absence of insulin and PGP at 37° C. for 90 min. The cells are disrupted by adding a toluene-soluble scintillation cocktail, and the lipids are separated from water-soluble products and the incubation medium. After phase separation, the radioactivity incorporated in lipids is determined by scintillation measurement directly without removing the aqueous phase ([^3 H]lipid [dpm*10^-3 ]).

[3] = test system: rat adipocytes; assay: Protein synthesis in rat adipocytes ([3H]leucine incorporation); type: cell-based; settings: 10 nM
Procedure: as §4, §5, §3
The stimulation of protein synthesis differs from the metabolic effects of insulin measured in the previous determinations in that it belongs to the long-term actions of insulin (as growth hormone). The assay includes the insulin signal cascade.
Rat adipocytes are incubated in primary culture in Dulbecco's modified essential medium (DMEM) deplete in leucine with 50 μM L-[^3 H]-leucine in the presence of insulin and PGP at 37° C. for 4 hours. […] The cell-associated radioactivity, determined by scintillation measurement, serves as a measure of the protein synthesis and the amino-acid transport through the plasma membrane ([^3 H]leucine [dpm*10^-4 ]).

[4] = test system: glycogen synthase; assay: Glycogen synthase activity in rat diaphragm pieces; type: cell-based; settings: 10 nM
Procedure: as §1, §2, §3
The test determines the conversion, which can be stimulated by insulin, of activated glucose (UDP-glucose) into glycogen (glycogen synthase activity) including a functional insulin signal transmission cascade. […]
Pieces of diaphragm are incubated with D-glucose (0.1 mM) in the presence or absence of insulin and PGP at 37° C. for 30 min. […] The glycogen synthase activity is calculated as the fractional ratio between the I form of the enzyme (independent of glucose 6-phosphate, dephosphorylated, corresponds to the amount of active enzyme in the homogenate) and the D form of the enzyme (dependent on glucose 6-phosphate, phosphorylated, corresponds to the total amount of activatable enzyme in the homogenate) ([^14 C]glycogen [dpm*10^-3 ]).

[5] = test system: plasma membrane vesicles from rat adipocytes; assay: Intrinsic glucose transport activity in isolated plasma membrane vesicles; type: biochemical; settings: 10 nM
Procedure: as §4, §5
The experimental results obtained in the following experiments with tissue or cells in which the insulin receptor has been inactivated are indicated in parentheses in each case. […]
Isolated plasma membrane vesicles are incubated in the presence or absence of insulin/PGP at 25° C. for 30 min. The vesicles are subsequently incubated with 50 μM D-[3-^3 H]-glucose and L-[1-^14 C]glucose of the same specific radioactivity at 25° C. for 90 sec. […] Their radioactivity is determined by liquid scintillation measurement. The specific transport (D-[^3 H]glucose/-L-^14 C]glucose [dpm*10^-3 ]) is calculated as the difference between the [^3 H] radioactivity and [^14 C] radioactivity.

[6] = insulin receptor inactivated (value in parentheses)

Insulin: insulin stands for human insulin
Glycogenesis ([14C]glycogen) ([1]; rat diaphragm pieces): 8.4 dpm*10^-3
Glycogenesis ([14C]glycogen) ([1]; rat diaphragm, insulin receptor inactivated (value in parentheses)): 4.1 dpm*10^-3
Lipogenesis ([3H]lipid) ([2]; rat adipocytes): 11.2 dpm*10^-3
Lipogenesis ([3H]lipid) ([2]; trypsin-treated adipocytes, insulin receptor inactivated (value in parentheses)): 1.9 dpm*10^-3
Lipogenesis which can be stimulated by insulin (in words) ([2]; control incubation, adipocytes treated with 10 to 40 μg/ml trypsin): only very little lipogenesis which can be stimulated by insulin
Protein synthesis ([3H]leucine) [3, 6]: 4.0 dpm*10^-4
Protein synthesis ([3H]leucine) ([3]; rat adipocytes, 4 hours): 10.1 dpm*10^-4
Glycogen synthase [4, 6]: 6.0 dpm*10^-3
Glycogen synthase ([4]; rat diaphragm pieces): 10.1 dpm*10^-3
Intrinsic glucose transport (specific transport D-[3H]glucose/L-[14C]glucose) [5, 6]: 2.3 dpm*10^-3
Intrinsic glucose transport (specific transport D-[3H]glucose/L-[14C]glucose) ([5]; plasma membrane vesicles): 2.5 dpm*10^-3
